Results taken from ChEMBL document CHEMBL1614632, “Trend analysis of a database of intravenous pharmacokinetic parameters in humans for 670 drug compounds” (Drug Metab Dispos, 2008).

Assays:
clinical [1] = settings: human, in vivo, iv, CL
clinical [2] = settings: human, in vivo, iv
clinical [3] = settings: human, in vivo, iv; remark: listed apart in the source
clinical [4] = settings: human, in vivo, iv, t1/2
clinical [5] = settings: human, in vivo, iv, Vdss

Structure (SMILES)	clearance (clinical [1])	fraction unbound (clinical [2])	MRT (clinical [3])	half-life (clinical [4])	Vd (clinical [5])
CCCCC(=O)N(Cc1ccc(-c2ccccc2-c2nnn[nH]2)cc1)[C@H](C(=O)O)C(C)C	0.49 mL/min/kg	0.04	7.5 h	9.5 h	
COc1ccc(C[C@@H]2c3cc(OC)c(OC)cc3CC[N@+]2(C)CCC(=O)OCCCCCOC(=O)CC[N@@+]2(C)CCc3cc(OC)c(OC)cc3[C@H]2Cc2ccc(OC)c(OC)c2)cc1OC	5.4 mL/min/kg	0.62	0.43 h	0.42 h	0.14 L/kg
C[C@@H](O)[C@H]1C(=O)N2C(C(=O)O)=C(S[C@@H]3CN[C@H](C(=O)Nc4cccc(C(=O)O)c4)C3)[C@H](C)[C@H]12	0.45 mL/min/kg	0.1	4.4 h	3.8 h	0.12 L/kg
COc1ccc(CC2c3cc(OC)c(OC)cc3CC[N+]2(C)CCC(=O)OCCCCCOC(=O)CC[N+]2(C)CCc3cc(OC)c(OC)cc3C2Cc2ccc(OC)c(OC)c2)cc1OC (centres undefined)	5.7 mL/min/kg	0.52	0.29 h	0.31 h	0.1 L/kg
CN(C)C(=O)CCS[C@H](SCCC(=O)O)c1cccc(/C=C/c2ccc3ccc(Cl)cc3n2)c1	0.68 mL/min/kg	0.0004	2.7 h	2.3 h	0.11 L/kg
Cc1cccc(C)c1NC(=O)NCCCNC(C)C	4.5 mL/min/kg	0.86	5.2 h	5 h	
N[C@@H](Cc1ccc(N(CCCl)CCCl)cc1)C(=O)O	7 mL/min/kg	0.14	1.1 h		0.48 L/kg
CC(C)=CCN1CC[C@]2(C)c3cc(O)ccc3C[C@H]1[C@H]2C [(+)-PENTAZOCINE]	23 mL/min/kg	0.39	2.5 h		3.4 L/kg
CN1CCc2cccc3c2[C@H]1Cc1ccc(O)c(O)c1-3 [APOMORPHINE]	40 mL/min/kg	0.057			1.6 L/kg
CN1CCCC(n2nc(Cc3ccc(Cl)cc3)c3ccccc3c2=O)CC1 (centres undefined) [AZELASTINE]	9 mL/min/kg	0.17	27 h	22 h	
CCc1cccc2cc(C(O)CNC(C)(C)C)oc12 (centres undefined) [BUFURALOL]	8.9 mL/min/kg	0.19	3.18 h	2.3 h	
CC[C@H](C)C[C@H](C)CCCCCCCCC(=O)N[C@H]1C[C@@H](O)[C@@H](NCCN)NC(=O)[C@@H]2[C@@H](O)CCN2C(=O)[C@H]([C@H](O)CCN)NC(=O)[C@H]([C@H](O)[C@@H](O)c2ccc(O)cc2)NC(=O)[C@@H]2C[C@@H](O)CN2C(=O)[C@H]([C@@H](C)O)NC1=O [CASPOFUNGIN]	0.14 mL/min/kg	0.035	15 h		0.13 L/kg
CO[C@@]1(NC(=O)C2SC(=C(C(N)=O)C(=O)O)S2)C(=O)N2C(C(=O)O)=C(CSc3nnnn3C)CS[C@@H]21 (some centres undefined) [CEFOTETAN]	0.42 mL/min/kg	0.15	5.2 h	4.5 h	
CC(C)(O/N=C(\C(=O)N[C@@H]1C(=O)N2C(C(=O)[O-])=C(C[n+]3ccccc3)CS[C@H]12)c1csc(N)n1)C(=O)O [CEFTAZIDIME]	2.4 mL/min/kg	0.79	2.2 h		0.31 L/kg
COc1ccc2c3c1O[C@H]1[C@@H](O)C=C[C@H]4[C@@H](C2)N(C)CC[C@@]341 [CODEINE]	15 mL/min/kg	0.7	3.9 h	4 h	
CC/C=C\C/C=C\C/C=C\C/C=C\C/C=C\C/C=C/CCC(=O)O[C@@H](C(=O)O[C@H]1C[C@@]2(O)[C@@H](OC(=O)c3ccccc3)C3[C@](C)(C(=O)[C@H](OC(C)=O)C(=C1C)C2(C)C)[C@@H](O)C[C@H]1OC[C@@]31OC(C)=O)[C@@H](NC(=O)c1ccccc1)c1ccccc1 (some centres undefined) [DHA PACLITAXEL]	0.025 mL/min/kg	0.0038	45 h	60 h	
CC(=O)Nc1c(I)c(NC(C)=O)c(I)c(C(=O)O)c1I [DIATRIZOIC ACID]	1.7 mL/min/kg	1	2.6 h		

Structure (SMILES)	clearance (clinical [1])	fraction unbound (clinical [2])	MRT (clinical [3])	half-life (clinical [4])	Vd (clinical [5])
C[C@H]1O[C@@H](O[C@H]2[C@@H](O)C[C@H](O[C@H]3[C@@H](O)C[C@H](O[C@H]4CC[C@@]5(C)[C@H](CC[C@@H]6[C@@H]5CC[C@]5(C)[C@@H](C7=CC(=O)OC7)CC[C@]65O)C4)O[C@@H]3C)O[C@@H]2C)C[C@H](O)[C@@H]1O [DIGITOXIN]	0.043 mL/min/kg	0.066	170 h		0.44 L/kg
Cc1onc(-c2c(F)cccc2Cl)c1C(=O)N[C@@H]1C(=O)N2[C@@H]1SC(C)(C)[C@@H]2C(=O)O [FLOXACILLIN]	2.4 mL/min/kg	0.043	1.3 h		0.19 L/kg
CC#CCC(C)[C@H](O)/C=C/[C@@H]1[C@H]2C/C(=C/CCCC(=O)O)C[C@H]2C[C@H]1O (some centres undefined) [ILOPROST]	16 mL/min/kg	0.4		0.57 h	0.37 L/kg
CN[C@@H]1[C@@H](O)[C@@H](O[C@@H]2[C@@H](O)[C@H](O[C@H]3O[C@H](CN)[C@@H](O)[C@H](O)[C@H]3O)[C@@H](N)C[C@H]2NC(=O)[C@@H](O)CN)OC[C@]1(C)O [ISEPAMICIN]	1.3 mL/min/kg	0.95	4.1 h	24 h	
NNC(=O)c1ccncc1 [ISONIAZID]	7.4 mL/min/kg	1	1.8 h		0.82 L/kg
CC[C@H](OC(C)=O)C(C[C@H](C)N(C)C)(c1ccccc1)c1ccccc1 [LEVOMETHADYL ACETATE]	5.4 mL/min/kg	0.2	26 h		8.3 L/kg
COc1ccc2c3c1O[C@H]1C(=O)CC[C@@]4(O)[C@@H](C2)N(C)CC[C@]314 [OXYCODONE]	6.1 mL/min/kg	0.55	6.8 h	5.5 h	
CCC[C@H](N[C@@H](C)C(=O)N1[C@H](C(=O)O)C[C@@H]2CCCC[C@@H]21)C(=O)O [PERINDOPRILAT]	1.7 mL/min/kg	0.16	7.6 h	29 h	
COc1ccc(-c2nc3ccc(C4=NNC(=O)CC4C)cc3[nH]2)cc1 (centres undefined) [PIMOBENDAN]		0.024	2.2 h	1.8 h	2.04 L/kg
NC(=O)c1ncn([C@@H]2O[C@H](CO)[C@@H](O)[C@H]2O)n1 [RIBAVIRIN]	5.2 mL/min/kg	1	45 h	45 h	
C[C@@H](O)[C@H]1C(=O)N2C(C(=O)O)=C(SCCOC(N)=O)S[C@H]12 [Sch-34343]		0.35	0.67 h	0.8 h	0.3 L/kg
CCCCCCCCCCNCCN[C@@]1(C)C[C@H](O[C@H]2[C@H](Oc3c4cc5cc3Oc3ccc(cc3Cl)[C@@H](O)[C@@H](NC(=O)[C@@H](CC(C)C)NC)C(=O)N[C@@H](CC(N)=O)C(=O)N[C@H]5C(=O)N[C@H]3C(=O)N[C@H](C(=O)N[C@H](C(=O)O)c5cc(O)c(CNCP(=O)(O)O)c(O)c5-c5cc3ccc5O)[C@H](O)c3ccc(c(Cl)c3)O4)O[C@H](CO)[C@@H](O)[C@@H]2O)O[C@@H](C)[C@H]1O [TELAVANCIN]	0.2 mL/min/kg	0.07	9.2 h	6.7 h	
COc1ccccc1Oc1c(NS(=O)(=O)c2ccc(C(C)C)cn2)nc(-c2ccnc(-c3nnn[nH]3)c2)nc1OCCO [TEZOSENTAN]	8.1 mL/min/kg	0.0085		3.8 h	0.28 L/kg
Nc1n[n+]([O-])c2ccccc2[n+]1[O-] [TIRAPAZAMINE]	8.9 mL/min/kg	0.81	1 h		0.56 L/kg
C[C@@H](c1ncncc1F)[C@](O)(Cn1cncn1)c1ccc(F)cc1F [VORICONAZOLE]		0.42	4.4 h	5.6 h	2.2 L/kg
Cc1cn([C@H]2C[C@H](N=[N+]=[N-])[C@@H](CO)O2)c(=O)[nH]c1=O [ZIDOVUDINE]		0.8	1.2 h	1.3 h	1.8 L/kg
